Columns and labels:
[1] = molecular target: Neuronal acetylcholine receptor; alpha4/beta2 (Homo sapiens, UniProt P17787+P43681); assay: Displacement of [3H]cytisine from human alpha4beta2 nAChR expressed in CHOK1 cell membrane by microbeta scintillation counting method; format: cell membranes, CHO-K1
[2] = Metabolic stability in human liver microsomes assessed as compound metabolism incubated for 30 mins in presence of NADPH by LC-MS/MS analysis; format: ADME, Microsome; details: read-out: Drug metabolism
[3] = Metabolic stability in rat liver microsomes assessed as compound metabolism incubated for 30 mins in presence of NADPH by LC-MS/MS analysis; format: ADME, Microsome; details: read-out: Drug metabolism
Cytochrome P450 2D6 = Cytochrome P450 2D6 (Homo sapiens, UniProt P10635); assay: Inhibition of CYP2D6 in human liver microsomes using dextromethorphan as substrate incubated for 12 min in presence of NADPH by LC-MS/MS analysis; format: ADME
Cytochrome P450 3A4 = Cytochrome P450 3A4 (Homo sapiens, UniProt P08684); assay: Inhibition of CYP3A4 in human liver microsomes using midazolam as substrate incubated for 2 min in presence of NADPH by LC-MS/MS analysis; format: ADME
[4] = molecular target: Neuronal acetylcholine receptor; alpha3/beta4 (Homo sapiens, UniProt P30926+P32297); assay: Displacement of [3H]epibatidine from human alpha3beta4 nAChR expressed in IMR32 cell membrane by microbeta scintillation counting method; format: cell membranes, IMR-32
Rattus norvegicus [5] = assay: Antidepressant activity in Wistar rat assessed as immobility time at 10.0 mg/kg, po measured for 5 mins by forced swim test (reference value: 241.9 to 281.6 sec); format: functional
Rattus norvegicus [6] = assay: Antidepressant activity in Wistar rat assessed as immobility time at 3.0 mg/kg, po measured for 5 mins by forced swim test (reference value: 241.9 to 281.6 sec); format: functional
[7] = Oral bioavailability in Wistar rat at 10 ml/kg measured upto 24 hrs by LC-MS/MS analysis; format: ADME, organism-based; details: in vivo
[8] = Ratio of drug level in brain to plasma in Wistar rat at 10 ml/kg, po or 2 ml/kg, iv measured upto 24 hrs by LC-MS/MS analysis; format: ADME, organism-based; details: brain and plasma, read-out: BPR
[9] = Cmax in Wistar rat at 10 ml/kg, po or 2 ml/kg, iv measured upto 24 hrs by LC-MS/MS analysis; format: ADME, organism-based; details: in vivo
[10] = AUC in Wistar rat at 10 ml/kg, po or 2 ml/kg, iv measured upto 24 hrs by LC-MS/MS analysis; format: ADME, organism-based; details: in vivo
[11] = Half life in Wistar rat at 10 ml/kg, po or 2 ml/kg, iv measured upto 24 hrs by LC-MS/MS analysis; format: ADME, organism-based; details: in vivo

Neuronal acetylcholine receptor; alpha4/beta2, sequence (P17787 whole entry): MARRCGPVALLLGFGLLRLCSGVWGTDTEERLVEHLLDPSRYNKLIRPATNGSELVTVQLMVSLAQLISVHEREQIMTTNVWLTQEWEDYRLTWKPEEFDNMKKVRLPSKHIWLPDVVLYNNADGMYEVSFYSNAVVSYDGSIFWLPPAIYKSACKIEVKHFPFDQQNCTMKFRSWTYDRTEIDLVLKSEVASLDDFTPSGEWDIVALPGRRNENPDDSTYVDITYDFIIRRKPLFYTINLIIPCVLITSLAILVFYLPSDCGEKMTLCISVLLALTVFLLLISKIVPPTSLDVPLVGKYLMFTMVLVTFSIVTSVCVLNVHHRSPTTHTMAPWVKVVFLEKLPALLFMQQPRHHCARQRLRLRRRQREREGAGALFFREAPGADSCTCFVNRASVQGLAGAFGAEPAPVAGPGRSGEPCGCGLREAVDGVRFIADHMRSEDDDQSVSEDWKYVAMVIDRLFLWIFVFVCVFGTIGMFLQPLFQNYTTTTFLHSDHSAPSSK
Neuronal acetylcholine receptor; alpha4/beta2, sequence (P43681 whole entry): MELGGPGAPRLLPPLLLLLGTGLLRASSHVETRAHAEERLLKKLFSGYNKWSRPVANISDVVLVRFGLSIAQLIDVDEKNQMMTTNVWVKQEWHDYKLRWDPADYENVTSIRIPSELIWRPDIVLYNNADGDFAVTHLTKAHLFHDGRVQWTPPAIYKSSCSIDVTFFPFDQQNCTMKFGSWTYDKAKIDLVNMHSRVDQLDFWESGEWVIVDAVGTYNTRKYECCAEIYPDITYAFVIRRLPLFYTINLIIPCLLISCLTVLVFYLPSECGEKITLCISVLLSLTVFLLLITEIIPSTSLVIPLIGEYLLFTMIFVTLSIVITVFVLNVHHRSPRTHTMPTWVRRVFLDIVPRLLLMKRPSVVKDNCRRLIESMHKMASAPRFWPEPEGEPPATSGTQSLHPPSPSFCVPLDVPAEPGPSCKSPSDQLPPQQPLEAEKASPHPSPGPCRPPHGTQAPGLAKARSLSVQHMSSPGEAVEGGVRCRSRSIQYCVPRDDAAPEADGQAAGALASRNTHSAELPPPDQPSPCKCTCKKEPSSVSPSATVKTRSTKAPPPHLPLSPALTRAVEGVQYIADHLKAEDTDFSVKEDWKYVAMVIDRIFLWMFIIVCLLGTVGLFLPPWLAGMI
Cytochrome P450 2D6, sequence (P10635 whole entry): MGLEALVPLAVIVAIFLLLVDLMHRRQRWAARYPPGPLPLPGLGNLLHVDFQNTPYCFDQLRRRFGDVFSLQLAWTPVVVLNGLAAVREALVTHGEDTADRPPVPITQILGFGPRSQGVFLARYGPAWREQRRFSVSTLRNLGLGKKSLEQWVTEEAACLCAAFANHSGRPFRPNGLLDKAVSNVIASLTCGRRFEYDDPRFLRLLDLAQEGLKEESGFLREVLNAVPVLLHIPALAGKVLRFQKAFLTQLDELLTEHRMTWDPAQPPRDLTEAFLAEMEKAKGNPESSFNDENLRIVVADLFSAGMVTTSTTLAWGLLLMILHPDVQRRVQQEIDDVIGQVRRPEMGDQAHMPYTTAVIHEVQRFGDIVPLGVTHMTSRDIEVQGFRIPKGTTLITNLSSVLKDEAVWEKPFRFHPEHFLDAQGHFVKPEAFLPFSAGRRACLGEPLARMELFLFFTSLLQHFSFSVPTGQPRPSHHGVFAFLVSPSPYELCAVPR
Cytochrome P450 3A4, sequence (P08684 whole entry): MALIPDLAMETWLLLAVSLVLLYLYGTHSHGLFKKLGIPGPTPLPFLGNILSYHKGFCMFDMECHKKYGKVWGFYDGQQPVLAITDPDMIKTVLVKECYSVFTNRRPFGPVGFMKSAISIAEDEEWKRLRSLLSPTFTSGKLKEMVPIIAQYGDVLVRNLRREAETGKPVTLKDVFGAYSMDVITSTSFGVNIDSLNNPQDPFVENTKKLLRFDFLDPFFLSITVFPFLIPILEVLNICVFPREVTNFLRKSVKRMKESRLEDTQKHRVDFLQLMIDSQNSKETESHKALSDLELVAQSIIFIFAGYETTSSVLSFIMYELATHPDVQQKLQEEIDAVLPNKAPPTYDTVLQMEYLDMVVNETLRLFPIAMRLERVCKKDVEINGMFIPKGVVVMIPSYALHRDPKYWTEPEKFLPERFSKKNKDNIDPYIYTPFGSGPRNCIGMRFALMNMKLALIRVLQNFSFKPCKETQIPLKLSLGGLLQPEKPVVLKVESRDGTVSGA
Neuronal acetylcholine receptor; alpha3/beta4, sequence (P30926 whole entry): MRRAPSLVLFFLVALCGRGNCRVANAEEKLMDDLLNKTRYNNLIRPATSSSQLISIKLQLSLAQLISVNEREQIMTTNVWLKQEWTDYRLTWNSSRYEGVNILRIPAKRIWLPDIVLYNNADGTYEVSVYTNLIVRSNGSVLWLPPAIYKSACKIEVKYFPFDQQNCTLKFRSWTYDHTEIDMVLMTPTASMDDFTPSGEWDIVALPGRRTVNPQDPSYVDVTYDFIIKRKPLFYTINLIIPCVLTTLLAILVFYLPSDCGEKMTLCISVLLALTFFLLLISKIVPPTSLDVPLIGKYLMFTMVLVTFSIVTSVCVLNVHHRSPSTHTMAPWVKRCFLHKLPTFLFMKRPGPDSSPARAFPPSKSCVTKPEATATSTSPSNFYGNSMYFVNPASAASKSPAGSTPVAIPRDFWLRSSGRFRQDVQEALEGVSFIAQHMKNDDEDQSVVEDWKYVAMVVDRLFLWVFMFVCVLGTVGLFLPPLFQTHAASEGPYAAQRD
Neuronal acetylcholine receptor; alpha3/beta4, sequence (P32297 whole entry): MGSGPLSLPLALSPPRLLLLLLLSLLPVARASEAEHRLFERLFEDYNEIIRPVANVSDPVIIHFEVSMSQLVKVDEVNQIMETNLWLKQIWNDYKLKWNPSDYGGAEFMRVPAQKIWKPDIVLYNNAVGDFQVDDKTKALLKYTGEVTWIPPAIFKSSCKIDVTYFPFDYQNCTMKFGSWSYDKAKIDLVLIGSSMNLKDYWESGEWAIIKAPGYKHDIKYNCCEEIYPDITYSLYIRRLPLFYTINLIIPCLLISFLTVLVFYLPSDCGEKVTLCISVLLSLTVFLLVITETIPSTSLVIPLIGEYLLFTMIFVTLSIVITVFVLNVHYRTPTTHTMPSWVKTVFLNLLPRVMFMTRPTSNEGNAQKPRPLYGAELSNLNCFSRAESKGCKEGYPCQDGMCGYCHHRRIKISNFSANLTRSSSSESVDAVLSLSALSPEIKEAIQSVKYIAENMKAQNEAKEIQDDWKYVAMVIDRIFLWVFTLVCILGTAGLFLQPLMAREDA

SMILES: Clc1cncc(OC[C@@H]2CC[C@H]3C[C@H]3N2)c1
- Ki [1]: 31.3 nM

SMILES: Fc1ncccc1OC[C@@H]1C[C@H]2C[C@H]2N1
- Ki [1]: 17.4 nM

SMILES: COc1ccc(OC[C@@H]2C[C@H]3C[C@H]3N2)cn1
- Ki [1]: > 10000 nM

SMILES: Clc1cncc(OC[C@H]2NC[C@@H]3C[C@@H]32)c1
- metabolised at 0.5 h [2]: 6.04%
- metabolised at 0.5 h [3]: 12.1%
- IC50 (Cytochrome P450 2D6): > 45000 nM
- Ki [1]: 0.2 nM
- IC50 (Cytochrome P450 3A4): > 45000 nM
- Ki [4]: 8.2 nM

SMILES: Clc1ccc(OC[C@]23C[C@H]2CCN3)cn1
- Ki [1]: 341 nM

SMILES: CN1[C@H](COc2ccc(Cl)nc2)C[C@H]2C[C@H]21
- Ki [1]: 3.4 nM

SMILES: c1cncc(N2CCC3(CCCN3)C2)c1 (stereo not drawn) [TC-2216]
- Time (Rattus norvegicus [5]): 183.9 s
- Ki [1]: 18.6 nM
- Ki [4]: > 10000 nM
- Time (Rattus norvegicus [6]): 249.1 s

SMILES: c1cncc(OC[C@H]2NC[C@@H]3C[C@@H]32)c1
- metabolised at 0.5 h [2]: 6.7%
- metabolised at 0.5 h [3]: 6.2%
- IC50 (Cytochrome P450 2D6): > 45000 nM
- Ki [1]: 0.14 nM
- IC50 (Cytochrome P450 3A4): 21100 nM
- Ki [4]: 26.4 nM

SMILES: Fc1ccc(OC[C@@H]2C[C@@H]3C[C@@H]3N2)cn1
- Ki [1]: 1.2 nM

SMILES: Cl.Fc1ccc(OC[C@@H]2C[C@H]3C[C@H]3N2)cn1
- metabolised at 0.5 h [2]: 10.7%
- metabolised at 0.5 h [3]: 5.1%
- IC50 (Cytochrome P450 2D6): > 45000 nM
- bioavailability [7]: 96%
- Time (Rattus norvegicus [5]): 263.5 s
- Ki [1]: 3.9 nM
- Kp at 24 h [8]: 2.38
- Cmax [9]: 3760 ng/mL
- AUC at 24 h [10]: 15600 ng·h/mL
- IC50 (Cytochrome P450 3A4): > 45000 nM
- Ki [4]: > 10000 nM
- Time (Rattus norvegicus [6]): 259.6 s
- half-life [11]: 4.02 h

SMILES: Cc1ncccc1OC[C@@H]1C[C@H]2C[C@H]2N1.Cl
- Time (Rattus norvegicus [5]): 198.8 s
- Ki [1]: > 10000 nM
- Time (Rattus norvegicus [6]): 204.8 s

SMILES: Clc1ncccc1OC[C@@H]1C[C@@H]2C[C@@H]2N1
- Ki [1]: 1 nM

SMILES: Cl.Clc1ccc(OC[C@H]2C[C@@H]3C[C@@H]3N2)cn1
- metabolised at 0.5 h [2]: 42.2%
- metabolised at 0.5 h [3]: 26.2%
- IC50 (Cytochrome P450 2D6): 17100 nM
- bioavailability [7]: 35%
- Time (Rattus norvegicus [5]): 279 s
- Ki [1]: 39 nM
- Kp at 24 h [8]: 3.83
- Cmax [9]: 1190 ng/mL
- AUC at 24 h [10]: 1770 ng·h/mL
- IC50 (Cytochrome P450 3A4): > 45000 nM
- Ki [4]: 6010 nM
- Time (Rattus norvegicus [6]): 256.8 s
- half-life [11]: 1.6 h

SMILES: CN1[C@H](COc2cncc(Br)c2)C[C@H]2C[C@H]21
- Ki [1]: 4.2 nM

SMILES: OCCCCC#Cc1cncc(OC[C@@H]2C[C@H]3C[C@H]3N2)c1
- Ki [1]: 2.7 nM

SMILES: Clc1ccc(OC[C@@H]2C[C@H]3C[C@H]3N2)nn1
- Ki [1]: 4740 nM

SMILES: Cc1ncccc1OC[C@@H]1CCCN1 [POZANICLINE]
- Ki [4]: > 10000 nM

SMILES: Cl.Clc1cncc(OC[C@@H]2C[C@H]3C[C@H]3N2)c1
- metabolised at 0.5 h [2]: 40.7%
- metabolised at 0.5 h [3]: 40.4%
- IC50 (Cytochrome P450 2D6): > 45000 nM
- bioavailability [7]: 50%
- Time (Rattus norvegicus [5]): 241.7 s
- Ki [1]: 0.19 nM
- Kp at 24 h [8]: 3.79
- Cmax [9]: 949 ng/mL
- AUC at 24 h [10]: 1190 ng·h/mL
- IC50 (Cytochrome P450 3A4): > 45000 nM
- Ki [4]: > 10000 nM
- Time (Rattus norvegicus [6]): 249.9 s
- half-life [11]: 1.07 h

SMILES: c1ccc(OC[C@@H]2C[C@H]3C[C@H]3N2)nc1
- Ki [1]: > 10000 nM

SMILES: CN1[C@H](COc2ccc(F)nc2)C[C@H]2C[C@H]21
- Ki [1]: 1.1 nM

SMILES: Clc1ncccc1OC[C@@H]1CC[C@H]2C[C@H]2N1
- Ki [1]: > 10000 nM

SMILES: c1cncc(OC[C@]23C[C@H]2CCN3)c1
- Ki [1]: 242 nM

SMILES: Cc1ccc(OC[C@@H]2C[C@@H]3C[C@@H]3N2)cn1
- Ki [1]: 1.38 nM

SMILES: CC(=O)N1[C@H](COc2ccc(Cl)nc2)C[C@H]2C[C@H]21
- Ki [1]: > 10000 nM

SMILES: Clc1ccc(OC[C@H]2NC[C@@H]3C[C@@H]32)cn1
- Ki [1]: 0.2 nM

SMILES: C=Cc1nnc(-c2cncc(OC[C@@H]3C[C@H]4C[C@H]4N3)c2)o1
- Ki [1]: 2660 nM

SMILES: Clc1cncc(OC[C@@H]2C[C@@H]3C[C@@H]3N2)c1
- Ki [1]: 327 nM

SMILES: COc1ccc(OC[C@@H]2C[C@@H]3C[C@@H]3N2)cn1
- Ki [1]: 4.7 nM

SMILES: FC(F)(F)c1ccc(OC[C@@H]2C[C@H]3C[C@H]3N2)cn1
- Ki [1]: 768 nM

SMILES: Cl.c1cncc(OC[C@@H]2C[C@H]3C[C@H]3N2)c1
- metabolised at 0.5 h [2]: 12.1%
- metabolised at 0.5 h [3]: 17.9%
- IC50 (Cytochrome P450 2D6): 26200 nM
- bioavailability [7]: 92%
- Time (Rattus norvegicus [5]): 210.4 s
- Ki [1]: 7.9 nM
- Kp at 24 h [8]: 3.8
- Cmax [9]: 7610 ng/mL
- AUC at 24 h [10]: 10900 ng·h/mL
- IC50 (Cytochrome P450 3A4): > 45000 nM
- Ki [4]: > 10000 nM
- Time (Rattus norvegicus [6]): 231 s
- half-life [11]: 4.19 h
